# Counter-ions that a name gives are not always drawn.
# What was measured:
# [1] = tested on: proinflammatory (M1) and anti-inflammatory (M2) markers; experiment: Ex vivo analysis of M1 and M2 markers in macrophages of EAE animals (realtime PCR); design: species or system rats; settings: EAE by MBP immunization, splenic macrophages day 13 and CNS infiltrating macrophages
# Experimental: A further study was carried out to study the impact of Lp-PLA2 inhibitors on modulating M1/M2 imbalance. In this study, rats were induced to develop experimental autoimmune encephalomyelitis (EAE) by immunization with myelin basic protein (MBP) antigen and treated with a known Lp-PLA2 inhibitor: 5-((9-Methoxy-4-oxo-6,7-dihydro-4H-pyrimido[6,1-a]isoquinolin-2-yl)oxy)-2-(3-(trifluoromethyl)phenoxy)benzonitrile (See PCT application no. PCT/CN2011/001597) For preventive treatment, compound administration started at day 0 whereas it started at 7 day in therapeutic treatment. Rats were subsequently monitored for symptoms of EAE. Rats were immunized with MBP to develop EAE and symptoms were monitored daily. Plasma Lp-PLA2 activity and LysoPC concentration were determined at different time points through the course of EAE.
# Ex vivo analysis of proinflammatory (M1) and anti-inflammatory (M2) markers in control and compound treated EAE […]. Splenic macrophages were harvested at day 13 post MBP-immunization and assayed for expression of a variety of markers by realtime PCR. CNS infiltrating cells were harvested and macrophages were analyzed for expression of M1 and M2 markers by realtime PCR.
# [2] = molecular target: T1, Lp-PLA2 from plasma (Homo sapiens, UniProt Q13093); experiment: Lp-PLA2 human plasma assay (Thio-PAF assay); format: biochemical; settings: pooled human plasma; read-out: pIC50 values in the thio-PAF assay (converted)
# T1 construct: from tissue; host or cells: pooled human plasma
# T1 sequence (Q13093 22-441): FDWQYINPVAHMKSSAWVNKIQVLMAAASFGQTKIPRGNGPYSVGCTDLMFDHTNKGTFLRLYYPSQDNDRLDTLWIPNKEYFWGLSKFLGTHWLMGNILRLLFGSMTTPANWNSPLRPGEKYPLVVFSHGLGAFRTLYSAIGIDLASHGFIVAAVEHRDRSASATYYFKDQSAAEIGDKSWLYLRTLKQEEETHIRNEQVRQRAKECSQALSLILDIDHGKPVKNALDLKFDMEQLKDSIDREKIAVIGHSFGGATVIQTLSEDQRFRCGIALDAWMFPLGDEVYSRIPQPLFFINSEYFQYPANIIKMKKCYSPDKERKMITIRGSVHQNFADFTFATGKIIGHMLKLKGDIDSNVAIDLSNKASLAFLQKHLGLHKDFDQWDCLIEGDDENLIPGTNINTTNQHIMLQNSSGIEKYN
# From the text: (3) Lipoprotein-Associated Phospholipase A2 (Lp-PLA2) Human Plasma Assay (Also Referred to as “Thio-PAF Assay”)
# The human plasma assay utilizes a thioester analog of PAF (phosphatidylcholine), where hydrolysis yields to the formation of a phospholipid containing a free thiol group. The amount of thiol is quantitated continuously by reacting with CPM (7-diethylamino-3-(4′-maleimidylphenyl)-4-methylcoumarin), a maleimide which increases in fluoresence after Michael addition of thiols. This assay may detect the activity of Lp-PLA2 from plasma, as determined by specific inhibition by Lp-PLA2 inhibitors.
# The thio-PAF assay was run as a quenched 15 μL assay. Compounds source plate was prepared by making 1:3 (by volume) serial dilution of the compounds into pure DMSO on 384-well microplate. 0.01 μL of compounds on compound source plate were transferred to 384 well Greiner 784076 (black) low-volume plates by ECHO liquid dispenser. 8 μL pooled human plasma, which was previously aliquoted and frozen, was added. Plates were centrifuged for 10 sec at 500 rpm. After 30 minutes preincubation, 2 μL of substrate (2.5 mM thio-PAF, 3.2 mM NEM (N-ethylmaleimide) [made fresh daily in DMSO], and 32 μM CPM [from a DMSO stock] in assay buffer of 50 mM HEPES, pH7.4, 150 mM NaCl, 1 mM CHAPS was added to 384 well Greiner 784076 (black) low-volume plates by BRAVO liquid handling station. Plates were centrifuged for 10 sec at 500 rpm. Plate was covered to protect from light and incubated for 2 min at room temperature. Reaction was quenched with 5 μL of 5% aqueous trifluoroacetic acid (TFA). Plates were covered to protect from light and incubated for 40 min at room temperature. Plates were read at ex: 380/em: 485 using-Envision microplate reader. PIC50 data, curve and QC analysis was conducted by using XLFit module in Excel.
# [3] = molecular target: T2, recombinant human Lp-PLA2 (Homo sapiens, UniProt Q13093); experiment: Recombinant human Lp-PLA2 assay (rhLp-PLA2, PED6 assay); format: biochemical; settings: upper limit for pIC50 in this assay is 9.3
# T2 sequence (Q13093 22-441): T1 sequence (Q13093 22-441)
# From the text: (1) Recombinant Human Lp-PLA2 Assay (rhLp-PLA2) (Also Referred to as “PED6” Assay)
# N-((6-(2,4-dinitrophenyl)amino)-hexanoyl)-2-(4,4-difluoro-5,7-dimethyl-4-bora-3a,4a-diaza-s-indacene-3-pentanoyl)-1-hexadecanoyl-sn-glycero-3-phosphoethanolamine, triethylammonium salt (PED6) is a commercially available fluorescently-labelled phospholipid, which is commercially available from Molecular Probes. There is a quenching para-nitro phenyl (PNP) group in the sn3 position and a Bodipy fluorescein (FL) group in the sn2 position. Upon cleavage with Lp-PLA2, the Bodipy F1 group is liberated and then may result in an increase in fluorescence. Inhibitors of Lp-PLA2 therefore prevent this cleavage and no fluorescent increase is observed.
# The PED6 assay was run as an […] 10 μL assay. Compounds source plate was prepared by making 1:3 (by volume) serial dilution of the compounds into pure DMSO on 384-well microplate. Then, 0.01 μL of compounds on compound source plate were transferred into 384 well Greiner 784076 (black) plates by ECHO liquid dispenser. 5 μL of recombinant human Lp-PLA2 enzyme (2 nM rhLp-PLA2 in assay buffer of 50 mM HEPES, pH7.4, 150 mM NaCl, 1 mM CHAPS) was added to each well of the plate with compounds. Plates were centrifuged for 10 sec at 500 rpm. After 30 minutes preincubation, […] substrate (4 μM PED6 [from 5 mM DMSO stock] in assay buffer of 50 mM HEPES, pH7.4, 150 mM NaCl, 1 mM CHAPS) was added to 384 well Greiner 784076 (black) plates. Plates were centrifuged for 10 sec at 500 rpm. Plate was covered to protect from light and incubated for 20 min at room temperature. Plates were read for fluorescence intensity at ex: 480/em: 540 using ViewLux microplate imager. PIC50 data, curve and QC analysis was conducted by using XL fit module in Excel.
IC50 [2],IC50 [3],SMILES,M1 markers [1],M2 markers [1]
,,"COc1ccc2c(c1)CCn1c-2cc(Oc2ccc(Oc3cccc(C(F)(F)F)c3)c(C#N)c2)nc1=O [5-((9-Methoxy-4-oxo-6,7-dihydro-4H-pyrimido[6,1-a]isoquinolin-2-yl)oxy)-2-(3-(trifluoromethyl)phenoxy)benzonitrile]",decrease,increase
≤ 100 nM,≤ 1 nM,"Cn1cc(Cn2cc(F)c(OCCc3cnc(Oc4ccc(Cl)c(C(F)(F)F)c4)c(F)c3)nc2=O)cn1 [Example 33, 4-(2-(6-(4-chloro-3-(trifluoromethyl)phenoxy)-5-fluoropyridin-3-yl)ethoxy)-5-fluoro-1-((1-methyl-1H-pyrazol-4-yl)methyl)pyrimidin-2(1H)-one]",,
≤ 100 nM,≤ 1 nM,"Cn1cc(Cn2cc(F)c(OCCc3ccc(Oc4ccc(C(F)(F)F)nc4)c(F)c3)nc2=O)cn1 [Example 41, 5-fluoro-4-(3-fluoro-4-((6-(trifluoromethyl)pyridin-3-yl)oxy)phenethoxy)-1-((1-methyl-1H-pyrazol-4-yl)methyl)pyrimidin-2(1H)-one]",,
≤ 100 nM,≤ 1 nM,"COc1ncc(Cn2cc(Cl)c(OCCc3ccc(Cc4ccc(Cl)c(C(F)(F)F)c4)cc3)nc2=O)cn1 [Example 45, 5-chloro-4-(4-(4-chloro-3-(trifluoromethyl)benzyl)phenethoxy)-1-((2-methoxypyrimidin-5-yl)methyl)pyrimidin-2(1H)-one]",,
≤ 100 nM,≤ 1 nM,"Cn1cc(Cn2cc(F)c(OCCc3ccc(Cc4ccc(Cl)c(C(F)(F)F)c4)cc3)nc2=O)cn1 [Example 46, 4-(4-(4-chloro-3-(trifluoromethyl)benzyl)phenethoxy)-5-fluoro-1-((1-methyl-1H-pyrazol-4-yl)methyl)pyrimidin-2(1H)-one]",,
≤ 100 nM,≤ 1 nM,"COc1ncc(Cn2cc(F)c(OCCc3ccc(Cc4ccc(Cl)c(C(F)(F)F)c4)cc3)nc2=O)cn1 [Example 47, 4-(4-(4-chloro-3-(trifluoromethyl)benzyl)phenethoxy)-5-fluoro-1-((2-methoxypyrimidin-5-yl)methyl)pyrimidin-2(1H)-one]",,
≤ 100 nM,≤ 1 nM,"Cn1cc(Cn2cc(Cl)c(OCc3ccc(Oc4ccc(F)c(F)c4)c(F)c3)nc2=O)cn1 [Example 53, 5-chloro-4-((4-(3,4-difluorophenoxy)-3-fluorobenzyl)oxy)-1-((1-methyl-1H-pyrazol-4-yl)methyl)pyrimidin-2 (1H)-one]",,
≤ 100 nM,≤ 1 nM,"Cn1cc(Cn2cc(F)c(OCCc3ccc(Oc4ccc(F)c(F)c4)c(F)c3)nc2=O)cn1 [Example 59, 4-(4-(3,4-difluorophenoxy)-3-fluorophenethoxy)-5-fluoro-1-((1-methyl-1H-pyrazol-4-yl)methyl)pyrimidin-2(1H)-one, trifluoroacetic acid salt]",,
≤ 100 nM,≤ 1 nM,"Cc1cn(Cc2cnn(C)c2)c(=O)nc1OCCc1ccc(Oc2ccc(Cl)c(C(F)(F)F)c2)cc1 [Example 66, 4-(4-(4-chloro-3-(trifluoromethyl)phenoxy)phenethoxy)-5-methyl-1-((1-methyl-1H-pyrazol-4-yl)methyl)pyrimidin-2 (1H)-one]",,
≤ 1000 nM,> 10 nM,"Cc1cn(Cc2cnn(C)c2)c(=O)nc1OCCc1ccc(Oc2ccc(F)c(F)c2)nc1 [Example 67, 4-(2-(6-(3,4-difluorophenoxy)pyridin-3-yl)ethoxy)-5-methyl-1-((1-methyl-1H-pyrazol-4-yl)methyl)pyrimidin-2(1H)-one]",,
≤ 100 nM,≤ 1 nM,"Cc1cn(Cc2cnn(C)c2)c(=O)nc1OCc1ccc(Oc2cccc(C(F)(F)F)c2)c(C#N)c1 [Example 69, 5-(((5-methyl-1-((1-methyl-1H-pyrazol-4-yl)methyl)-2-oxo-1,2-dihydropyrimidin-4-yl)oxy)methyl)-2-(3-(trifluoromethyl)phenoxy)benzonitrile]",,
≤ 1000 nM,> 10 nM,"COc1ncc(Cn2cc(C)c(OCCc3ccc(Oc4ccc(F)c(F)c4)nc3)nc2=O)cn1 [Example 70, 4-(2-(6-(3,4-difluorophenoxy)pyridin-3-yl)ethoxy)-1-((2-methoxypyrimidin-5-yl)methyl)-5-methylpyrimidin-2(1H)-one]",,
≤ 100 nM,≤ 1 nM,"Cc1cn(Cc2cnn(C)c2)c(=O)nc1OCc1ccc(Oc2ccc(F)c(F)c2)c(C#N)c1 [Example 71, 2-(3,4-difluorophenoxy)-5-(((5-methyl-1-((1-methyl-1H-pyrazol-4-yl)methyl)-2-oxo-1,2-dihydropyrimidin-4-yl)oxy)methyl)benzonitrile]",,
≤ 100 nM,≤ 1 nM,"Cc1cn(Cc2cnn(C)c2)c(=O)nc1OCc1ccc(Oc2ccc(F)c(F)c2)c(F)c1 [Example 72, 4-((4-(3,4-difluorophenoxy)-3-fluorobenzyl)oxy)-5-methyl-1-((1-methyl-1H-pyrazol-4-yl)methyl)pyrimidin-2(1H)-one]",,

# From patent US8859573B2, “Pyrimidinone and pyridinone compounds for use in the treatment of diseases or conditions mediated by Lp-PLA2” (Glaxo Group Limited, priority 2010, dated 2014)
